# Assay results published in PubChem BioAssay (NCI).
#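 Interpolation was linear, between the two tested concentrations surrounding the appropriate level; five concentrations were tested over 48 hours in 96-well plates. GI50: concentration for 50% inhibition of growth. Definition used: TGI = concentration required for complete inhibition of growth.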
# Key:
# Assay in all cases: DTP human tumour cell line panel, 48 h
# 786-0 renal = system: 786-0 renal
# A498 renal = system: A498 renal
# A549 NSCLC = system: A549 NSCLC
# ACHN renal = system: ACHN renal
# BT-549 breast = system: BT-549 breast
# CAKI-1 renal = system: CAKI-1 renal
# CCRF-CEM leukemia = system: CCRF-CEM leukemia
# COLO 205 colon = system: COLO 205 colon
# DU-145 prostate = system: DU-145 prostate
# EKVX NSCLC = system: EKVX NSCLC
# HCC-2998 colon = system: HCC-2998 colon
# HCT-116 colon = system: HCT-116 colon
# HCT-15 colon = system: HCT-15 colon
# HL-60(TB) leukemia = system: HL-60(TB) leukemia
# HOP-62 NSCLC = system: HOP-62 NSCLC
# HOP-92 NSCLC = system: HOP-92 NSCLC
# HS 578T breast = system: HS 578T breast
# IGROV1 ovarian = system: IGROV1 ovarian
# K-562 leukemia = system: K-562 leukemia
# KM12 colon = system: KM12 colon
# LOX IMVI melanoma = system: LOX IMVI melanoma
# M14 melanoma = system: M14 melanoma
# MALME-3M melanoma = system: MALME-3M melanoma
# MCF7 breast = system: MCF7 breast
# MDA-MB-231 breast = system: MDA-MB-231 breast
# MDA-MB-435 = system: MDA-MB-435
# MOLT-4 leukemia = system: MOLT-4 leukemia
# NCI-H226 lung = system: NCI-H226 lung
# NCI-H23 lung = system: NCI-H23 lung
# NCI-H460 lung = system: NCI-H460 lung
# NCI-H522 lung = system: NCI-H522 lung
# NCI/ADR-RES ovarian = system: NCI/ADR-RES ovarian
# OVCAR-3 ovarian = system: OVCAR-3 ovarian
# OVCAR-4 ovarian = system: OVCAR-4 ovarian
# OVCAR-5 ovarian = system: OVCAR-5 ovarian
# OVCAR-8 ovarian = system: OVCAR-8 ovarian
# PC-3 prostate = system: PC-3 prostate
# RXF 393 renal = system: RXF 393 renal
# SF-268 CNS = system: SF-268 CNS
# SF-295 CNS = system: SF-295 CNS
# SF-539 CNS = system: SF-539 CNS
# SK-MEL-2 melanoma = system: SK-MEL-2 melanoma
# SK-MEL-28 melanoma = system: SK-MEL-28 melanoma
# SK-MEL-5 melanoma = system: SK-MEL-5 melanoma
# SK-OV-3 ovarian = system: SK-OV-3 ovarian
# SN12C renal = system: SN12C renal
# SNB-19 CNS = system: SNB-19 CNS
# SNB-75 CNS = system: SNB-75 CNS
# SW-620 colon = system: SW-620 colon
# T-47D breast = system: T-47D breast
# TK-10 renal = system: TK-10 renal
# U251 CNS = system: U251 CNS
# UACC-257 melanoma = system: UACC-257 melanoma
# UACC-62 melanoma = system: UACC-62 melanoma
# UO-31 renal = system: UO-31 renal
compound,measurement,setting,value
CCOC(=O)N1CCN(S(=O)(=O)c2oc(-c3ccc(Cl)cc3)nc2C#N)CC1,GI50,786-0 renal,1.65 µM
same,TGI,786-0 renal,3.24 µM
same,GI50,A498 renal,17.2 µM
same,TGI,A498 renal,> 100 µM
same,GI50,A549 NSCLC,24.9 µM
same,TGI,A549 NSCLC,> 100 µM
same,GI50,ACHN renal,1.76 µM
same,TGI,ACHN renal,3.15 µM
same,GI50,BT-549 breast,2.22 µM
same,TGI,BT-549 breast,5.6 µM
same,GI50,CAKI-1 renal,1.75 µM
same,TGI,CAKI-1 renal,3.14 µM
same,GI50,CCRF-CEM leukemia,0.36 µM
same,TGI,CCRF-CEM leukemia,5.13 µM
same,GI50,COLO 205 colon,2.05 µM
same,TGI,COLO 205 colon,4.25 µM
same,GI50,DU-145 prostate,2.48 µM
same,TGI,DU-145 prostate,6.31 µM
same,GI50,EKVX NSCLC,9.71 µM
same,TGI,EKVX NSCLC,27.2 µM
same,GI50,HCC-2998 colon,3.15 µM
same,TGI,HCC-2998 colon,10.8 µM
same,GI50,HCT-116 colon,1.74 µM
same,TGI,HCT-116 colon,3.7 µM
same,GI50,HCT-15 colon,1.49 µM
same,TGI,HCT-15 colon,3.3 µM
same,GI50,HL-60(TB) leukemia,2.14 µM
same,TGI,HL-60(TB) leukemia,7.15 µM
same,GI50,HOP-62 NSCLC,13.5 µM
same,TGI,HOP-62 NSCLC,> 100 µM
same,GI50,HOP-92 NSCLC,1.8 µM
same,TGI,HOP-92 NSCLC,3.75 µM
same,GI50,HS 578T breast,4.2 µM
same,TGI,HS 578T breast,23.8 µM
same,GI50,IGROV1 ovarian,1.75 µM
same,TGI,IGROV1 ovarian,3.47 µM
same,GI50,K-562 leukemia,1.59 µM
same,TGI,K-562 leukemia,> 100 µM
same,GI50,KM12 colon,10.5 µM
same,TGI,KM12 colon,35.6 µM
same,GI50,LOX IMVI melanoma,0.573 µM
same,TGI,LOX IMVI melanoma,2.02 µM
same,GI50,M14 melanoma,1.59 µM
same,TGI,M14 melanoma,3.67 µM
same,GI50,MALME-3M melanoma,1.67 µM
same,TGI,MALME-3M melanoma,3.09 µM
same,GI50,MCF7 breast,1.75 µM
same,TGI,MCF7 breast,4.21 µM
same,GI50,MDA-MB-231 breast,1.94 µM
same,TGI,MDA-MB-231 breast,4.24 µM
same,GI50,MDA-MB-435,2.32 µM
same,TGI,MDA-MB-435,5.24 µM
same,GI50,MOLT-4 leukemia,0.739 µM
same,TGI,MOLT-4 leukemia,4.35 µM
same,GI50,NCI-H226 lung,64.3 µM
same,TGI,NCI-H226 lung,> 100 µM
same,GI50,NCI-H23 lung,3.93 µM
same,TGI,NCI-H23 lung,15.1 µM
same,GI50,NCI-H460 lung,15 µM
same,TGI,NCI-H460 lung,46 µM
same,GI50,NCI-H522 lung,0.956 µM
same,TGI,NCI-H522 lung,3.07 µM
same,GI50,NCI/ADR-RES ovarian,12.2 µM
same,TGI,NCI/ADR-RES ovarian,47.6 µM
same,GI50,OVCAR-3 ovarian,1.79 µM
same,TGI,OVCAR-3 ovarian,3.38 µM
same,GI50,OVCAR-4 ovarian,2.36 µM
same,TGI,OVCAR-4 ovarian,5.5 µM
same,GI50,OVCAR-5 ovarian,3.92 µM
same,TGI,OVCAR-5 ovarian,13.3 µM
same,GI50,OVCAR-8 ovarian,3.23 µM
same,TGI,OVCAR-8 ovarian,23.3 µM
same,GI50,PC-3 prostate,2.24 µM
same,TGI,PC-3 prostate,5.77 µM
same,GI50,RXF 393 renal,1.82 µM
same,TGI,RXF 393 renal,3.25 µM
same,GI50,SF-268 CNS,2.56 µM
same,TGI,SF-268 CNS,6.75 µM
same,GI50,SF-295 CNS,28.2 µM
same,TGI,SF-295 CNS,> 100 µM
same,GI50,SF-539 CNS,3.34 µM
same,TGI,SF-539 CNS,10.5 µM
same,GI50,SK-MEL-2 melanoma,3.96 µM
same,TGI,SK-MEL-2 melanoma,13.8 µM
same,GI50,SK-MEL-28 melanoma,2.12 µM
same,TGI,SK-MEL-28 melanoma,4.23 µM
same,GI50,SK-MEL-5 melanoma,2.51 µM
same,TGI,SK-MEL-5 melanoma,6.46 µM
same,GI50,SK-OV-3 ovarian,74.1 µM
same,TGI,SK-OV-3 ovarian,> 100 µM
same,GI50,SN12C renal,1.66 µM
same,TGI,SN12C renal,3.23 µM
same,GI50,SNB-19 CNS,14.6 µM
same,TGI,SNB-19 CNS,50.7 µM
same,GI50,SNB-75 CNS,11.4 µM
same,TGI,SNB-75 CNS,> 100 µM
same,GI50,SW-620 colon,1.69 µM
same,TGI,SW-620 colon,3.75 µM
same,GI50,T-47D breast,2.29 µM
same,TGI,T-47D breast,5.94 µM
same,GI50,TK-10 renal,1.8 µM
same,TGI,TK-10 renal,3.29 µM
same,GI50,U251 CNS,5.49 µM
same,TGI,U251 CNS,19.6 µM
same,GI50,UACC-257 melanoma,2.37 µM
same,TGI,UACC-257 melanoma,7.71 µM
same,GI50,UACC-62 melanoma,3.07 µM
same,TGI,UACC-62 melanoma,12.7 µM
same,GI50,UO-31 renal,1.54 µM
same,TGI,UO-31 renal,2.88 µM
N=C(N)c1ccc(-c2ccc(-c3ccc(Cl)cc3)o2)nc1,GI50,CAKI-1 renal,1.42 µM
same,TGI,CAKI-1 renal,2.74 µM
